Measurements taken from patent US6916798B2, “Inhibitors of GSK-3 and uses thereof” (Vertex Pharmaceuticals Incorporated, priority 2001, dated 2005).

Target: T1, GSK-3β (AA 1-420) (Homo sapiens, UniProt P49841)
T1 construct: GSK-3β (AA 1-420)
Test: Ki determination for the inhibition of GSK-3, standard coupled enzyme system
Assay type: biochemical
Conditions: not given
Experimental: Final substrate concentrations in the assay were 20 μM ATP (Sigma Chemicals, St Louis, Mo.) and 300 μM peptide (HSSPHQS(PO3H2)EDEEE, American Peptide, Sunnyvale, Calif.). Reactions were carried out at 30° C. and 20 nM GSK-3β. Final concentrations of the components of the coupled enzyme system were 2.5 mM phosphoenolpyruvate, 300 μM NADH, 30 μg/ml pyruvate kinase and 10 μg/ml lactate dehydrogenase.
An assay stock buffer solution was prepared containing all of the reagents listed above with the exception of ATP and the test compound of interest. The assay stock buffer solution (175 μl) was incubated in a 96 well plate with 5 μl of the test compound of interest at final concentrations spanning 0.002 μM to 30 μM at 30 ° C. for 10 min. […] The reaction was initiated by the addition of 20 μl of ATP (final concentration 20 μM). Rates of reaction were obtained using a Molecular Devices Spectramax plate reader (Sunnyvale, Calif.) over 10 min at 30° C. The Ki values were determined from the rate data as a function of inhibitor concentration.

T1 sequence (P49841 whole entry, the tested form may be a part): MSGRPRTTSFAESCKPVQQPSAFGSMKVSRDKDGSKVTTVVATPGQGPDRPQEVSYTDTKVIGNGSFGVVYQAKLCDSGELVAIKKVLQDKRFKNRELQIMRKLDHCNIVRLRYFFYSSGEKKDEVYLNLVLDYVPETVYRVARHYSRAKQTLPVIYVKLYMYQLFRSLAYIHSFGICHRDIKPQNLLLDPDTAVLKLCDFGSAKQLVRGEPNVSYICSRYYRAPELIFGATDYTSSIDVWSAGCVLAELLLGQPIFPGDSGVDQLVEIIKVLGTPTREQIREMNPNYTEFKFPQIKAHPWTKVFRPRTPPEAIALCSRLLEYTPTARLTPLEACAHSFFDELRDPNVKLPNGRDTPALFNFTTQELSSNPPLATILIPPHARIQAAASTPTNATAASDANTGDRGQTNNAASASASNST

SMILES | Ki
COc1ccc(N/N=C2\C(=O)NN=C2c2cccnc2)cc1 [Compound 20] | < 100 nM

Same assay, conditions: 20 μM ATP, 300 μM peptide, 20 nM GSK-3β, 30° C.; read-out: Ki values for GSK-3

Ki | SMILES
100 to 1000 nM | COc1cc(OC)c(NN=C2C(=O)NN=C2c2ccc(OC)c(OC)c2)c(OC)c1 [Compound 112, 5-(3,4-Dimethoxy-phenyl)-4-[(2,4,6-trimethoxy-phenyl)-hydrazono]-2,4-dihydro-pyrazol-3-one]
< 100 nM | COc1ccc(C2=NNC(=O)C2=NNc2cccc(-c3ccccc3)c2)cc1OC [Compound 204]
< 100 nM | COc1cc(C2=NNC(=O)C2=NNc2ccc(OC)c(Br)c2)ccc1O [Compound 225]
100 to 1000 nM | O=C1NN=C(c2ccccc2F)C1=NNc1ccc(Cl)cc1 [Compound 27]
100 to 1000 nM | COc1cc(N2CCOCC2)ccc1NN=C1C(=O)NN=C1c1ccc(OC)c(OC)c1 [Compound 40]
< 100 nM | COc1ccc(C2=NNC(=O)C2=NNc2cccc(C(F)(F)F)c2)cc1 [Compound 66]
< 100 nM | O=C1NN=C(c2ccc(N3CCOCC3)cc2)C1=NNc1cccc(-c2ccccc2)c1 [Compound 205]
< 100 nM | COc1ccc(N/N=C2\C(=O)NN=C2c2cccc(OC)c2)cc1 [Compound 50]
< 100 nM | COc1ccc(C2=NNC(=O)C2=NNc2ccc3c(c2)OCO3)cc1 [Compound 213]
< 100 nM | COc1ccc(C2=NNC(=O)C2=NNc2ccc(OC)c(-c3ccccc3)c2)cc1 [Compound 220]
< 100 nM | COc1cccc(C2=NNC(=O)/C2=N\Nc2ccc(C#N)cc2)c1 [Compound 59]
< 100 nM | COc1ccc(C2=NNC(=O)C2=NNc2cccc(OC)c2)cc1 [Compound 72]
< 100 nM | CCN(CC)c1ccc(N/N=C2\C(=O)NN=C2c2ccc(OC)cc2)cc1 [Compound 36]
< 100 nM | CCn1c2ccccc2c2cc(NN=C3C(=O)NN=C3c3ccc(OC)cc3)ccc21 [Compound 217]
100 to 1000 nM | O=C1NN=C(c2ccccc2)/C1=N/Nc1ccccc1Cl [Compound 12]
< 100 nM | COc1ccc(C2=NNC(=O)C2=NNc2ccc(Br)cc2)cc1 [Compound 54]
< 100 nM | COc1ccc(C2=NNC(=O)C2=NNc2cccc(Oc3ccccc3)c2)cc1 [Compound 88]
< 100 nM | COc1ccc(C2=NNC(=O)C2=NNc2ccc(Br)cc2)cc1OC [Compound 55]
< 100 nM | COc1ccc(C2=NNC(=O)C2=NNc2ccc(OC)c(-c3cccc(N)c3)c2)cc1OC [Compound 105, 4-[(3′-Amino-6-methoxy-biphenyl-3-yl)-hydrazono]-5-(3,4-dimethoxy-phenyl)-2,4-dihydro-pyrazol-3-one]
< 100 nM | COc1cccc(C2=NNC(=O)C2=NNc2ccc(Oc3ccccc3)cc2)c1 [Compound 87]
< 100 nM | COc1ccc(C2=NNC(=O)C2=NNc2ccc3c(c2)C(=O)c2ccccc2-3)cc1OC [Compound 207]
< 100 nM | O=C1NN=C(c2ccncc2)C1=NNc1ccc(Cl)cc1 [Compound 24]
< 100 nM | COc1ccc(C2=NNC(=O)C2=NNc2ccc(-c3ccc(F)cc3)cc2)cc1OC [Compound 83]

Ki | SMILES
< 100 nM | COc1cccc(N/N=C2\C(=O)NN=C2c2cccc(OC)c2)c1 [Compound 74]
< 100 nM | COc1ccc(C2=NNC(=O)/C2=N\Nc2ccc(N(C)C)cc2)cc1 [Compound 51]
100 to 1000 nM | COc1ccc(NN=C2C(=O)NN=C2c2ccccc2F)cc1 [Compound 33]
< 100 nM | CCn1c2ccccc2c2cc(NN=C3C(=O)NN=C3c3ccc(OC)c(OC)c3)ccc21 [Compound 218]
100 to 1000 nM | O=C1NN=C(c2ccncc2)/C1=N/Nc1ccccc1Cl [Compound 16]
< 100 nM | COc1cccc(C2=NNC(=O)/C2=N\Nc2ccc(N(C)C)cc2)c1 [Compound 53]
< 100 nM | COc1ccc(C2=NNC(=O)C2=NNc2ccc(OC)c(N3CCN(C)CC3)c2)cc1OC [Compound 125, 5-(3,4-Dimethoxy-phenyl)-4-{[4-methoxy-3-(4-methyl-piperazin-1-yl)-phenyl]-hydrazono}-2,4-dihydro-pyrazol-3-one]
< 100 nM | COc1cccc(C2=NNC(=O)C2=NNc2ccc([N+](=O)[O-])cc2)c1 [Compound 78]
100 to 1000 nM | O=C1NN=C(c2ccccn2)C1=NNc1ccc(Cl)cc1 [Compound 17]
< 100 nM | COc1ccc(C2=NNC(=O)C2=NNc2ccc(C(F)(F)F)cc2)cc1 [Compound 63]
< 100 nM | COc1ccc(C2=NNC(=O)C2=NNc2ccc(C(F)(F)F)cc2)cc1OC [Compound 64]
< 100 nM | COc1ccc(C2=NNC(=O)C2=NNc2cccc(C(F)(F)F)c2)cc1OC [Compound 67]
< 100 nM | O=C1NN=C(c2cccnc2)C1=NNc1ccc(Cl)cc1 [Compound 18]
< 100 nM | O=C1NN=C(c2ccc3c(c2)OCO3)C1=NNc1ccc(Cl)cc1 [Compound 45]
< 100 nM | COc1ccc(C2=NNC(=O)C2=NNc2cccc(Oc3ccccc3)c2)cc1OC [Compound 89]
< 100 nM | COc1ccc(N/N=C2\C(=O)NN=C2c2ccncc2)cc1 [Compound 21]
100 to 1000 nM | COc1ccc(NN=C2C(=O)NN=C2c2ccc(C#N)cc2)cc1 [Compound 76]
< 100 nM | COc1cccc(C2=NNC(=O)C2=NNc2cccc(C(F)(F)F)c2)c1 [Compound 68]
100 to 1000 nM | COc1cccc(C2=NNC(=O)C2=NNc2ccc(-c3ccc(F)cc3)cc2)c1 [Compound 84]
< 100 nM | COc1ccc(NN=C2C(=O)NN=C2c2cc(OC)c(OC)c(OC)c2)cc1N1CCOCC1 [Compound 124, 4-[(4-Methoxy-3-morpholin-4-yl-phenyl)-hydrazono]-5-(3,4,5-trimethoxy-phenyl)-2,4-dihydro-pyrazol-3-one]
< 100 nM | COc1ccc(C2=NNC(=O)C2=NNc2cccc(-c3ccccc3)c2)cc1 [Compound 203]
< 100 nM | COc1cccc(C2=NNC(=O)C2=NNc2cccc(Oc3ccccc3)c2)c1 [Compound 90]
< 100 nM | COc1ccc(C2=NNC(=O)C2=NNc2ccc([N+](=O)[O-])cc2)cc1 [Compound 77]

Ki | SMILES
100 to 1000 nM | COc1cc(C2=NNC(=O)C2=NNc2ccc(N3CCOCC3)cc2OC)ccc1O [Compound 113, 5-(4-Hydroxy-3-methoxy-phenyl)-4-[(2-methoxy-4-morpholin-4-yl-phenyl)-hydrazono]-2,4-dihydro-pyrazol-3-one]
< 100 nM | COc1ccc(C2=NNC(=O)/C2=N\Nc2ccc(C#N)cc2)cc1 [Compound 57]
< 100 nM | COc1cc(C2=NNC(=O)C2=NNc2ccc(OC)c(N3CCN(C)CC3)c2)ccc1OCc1ccccc1 [Compound 126, 5-(4-Benzyloxy-3-methoxy-phenyl)-4-{[4-methoxy-3-(4-methyl-piperazin-1-yl)-phenyl]-hydrazono}-2,4-dihydro-pyrazol-3-one]
100 to 1000 nM | COc1cc(C2=NNC(=O)C2=CNc2cc(C)[nH]n2)cc(OC)c1OC [Compound 227]
< 100 nM | COc1cccc(C2=NNC(=O)C2=NNc2ccc(C(F)(F)F)cc2)c1 [Compound 65]
< 100 nM | COc1ccc(NN=C2C(=O)NN=C2c2ccc3c(c2)OCO3)cc1 [Compound 48]
< 100 nM | O=C1NN=C(c2ccc(N3CCOCC3)cc2)C1=NNc1ccc2c(c1)C(=O)c1ccccc1-2 [Compound 208]
100 to 1000 nM | COc1ccc(Nc2ccc(NC=C3C(=O)NN=C3c3ccc(OC)cc3)cc2)cc1 [Compound 224]
100 to 1000 nM | CCN(CC)c1ccc(NN=C2C(=O)NN=C2c2cc(OC)c(OC)c(OC)c2)cc1 [Compound 38]
< 100 nM | COc1ccc(C2=NNC(=O)C2=NNc2ccc3c(c2)C(=O)c2ccccc2-3)cc1 [Compound 206]
< 100 nM | COc1ccc(C2=NNC(=O)/C2=N\Nc2cccc(Cl)c2)cc1 [Compound 69]
< 100 nM | COc1cccc(C2=NNC(=O)C2=NNc2ccc(Br)cc2)c1 [Compound 56]
< 100 nM | COc1ccc(C2=NNC(=O)C2=NNc2ccc(OC)c(N3CCOCC3)c2)cc1OC [Compound 123, 5-(3,4-Dimethoxy-phenyl)-4-[(4-methoxy-3-morpholin-4-yl-phenyl)-hydrazono]-2,4-dihydro-pyrazol-3-one]
< 100 nM | N#Cc1ccc(C2=NNC(=O)C2=NNc2ccc(Cl)cc2)cc1 [Compound 75]
< 100 nM | O=C1NN=C(c2ccccc2)/C1=N/Nc1ccc(Cl)cc1 [Compound 25]
< 100 nM | COc1cccc(C2=NNC(=O)/C2=N\Nc2ccc(Cl)cc2)c1 [Compound 49]
100 to 1000 nM | CCOc1cc(N2CCOCC2)c(OCC)cc1NN=C1C(=O)NN=C1c1ccc(OC)c(OC)c1 [Compound 111, 4-[(2,5-Diethoxy-4-morpholin-4-yl-phenyl)-hydrazono]-5-(3,4-dimethoxy-phenyl)-2,4-dihydro-pyrazol-3-one]
< 100 nM | COc1ccc(C2=NNC(=O)C2=NNc2ccc(Oc3ccccc3)cc2)cc1 [Compound 85]
< 100 nM | COc1ccc(C2=NNC(=O)C2=NNc2ccc(-c3ccc(F)cc3)cc2)cc1 [Compound 82]
100 to 1000 nM | COc1ccc(N/N=C2\C(=O)NN=C2c2ccccn2)cc1 [Compound 26]
< 100 nM | COc1ccc(C2=NNC(=O)C2=NNc2ccc(OC)c(-c3cc(OC)c(OC)c(OC)c3)c2)cc1OC [Compound 109, 5-(3,4-Dimethoxy-phenyl)-4-[(6,3′,4′,5′-tetramethoxy-biphenyl-3-yl)-hydrazono]-2,4-dihydro-pyrazol-3-one]
100 to 1000 nM | CC1=NNC(=O)/C1=N\Nc1ccccc1Cl [Compound 8]

SMILES | Ki
O=C1NN=C(c2cccnc2)/C1=N/Nc1ccccc1Cl [Compound 15] | 100 to 1000 nM
